One experiment has as its target T1, MC1-R (Mus musculus, UniProt Q01727).
T1 construct: B-16 mouse melanoma cells (containing MC1-R); endogenous in cells
The experiment is described as follows: Competitive inhibition assay using [I^125]-NDP-α-MSH, B-16 mouse melanoma cell membranes. Type of experiment: binding. As to conditions: for inhibition at 1 µM: 1 μM test compound, read-out: Inhibition at 1 μM (NDP-α-MSH) In Normal System, MC1-R. In a few lines: (§1)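 Tracer was 0.4 nM for MC3-R and MC5-R, 0.2 nM for MC4-R and 0.1 nM for MC1-R. Bound radioactivity was gamma-counted after filtration; values are triplicate means, with results below 0% reported as 0%.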

The nature of experiment [1]: ICV food intake and body weight change. Particulars: rat, 1 nmol, 24 hours. Type of experiment: in vivo. Put shortly:
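Rats fitted with intracerebroventricular cannulas and fed ad libitum got a single ICV dose of vehicle or compound (1-3 nmol). Food intake and body-weight change over the 24 h after dosing were compared with a 1-week vehicle baseline. Values at 48 h and 72 h were also recorded to follow return to baseline.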

The target of experiment [2] is T2, MC4-R (Homo sapiens, UniProt P32245). The experiment is described as follows: cAMP agonist stimulation, low receptor density system (0.1 ng/mL doxycycline). As to conditions: 0.1 ng/mL doxycycline, low receptor density hMC4-R system; NDP-α-MSH maximal cAMP = 1.0.
For experiment [3], the target named is T2, MC4-R. The experiment in a line: cAMP functional activity assay in HEK-293 cells, normal system. Type of experiment: cell-based. On the set-up: expressed in transfected cells; host or cells: HEK-293. As to conditions: for intrinsic activity at MC4-R in a normal system: normal receptor density system, NDP-α-MSH = 1.0.
The target of a further experiment is MC5-R (Homo sapiens, UniProt P33032). The experiment is described as follows: Competitive inhibition assay using [I^125]-NDP-α-MSH, hMC5-R membranes. Format: binding. On the set-up: expressed in transfected cells. Particulars: 1 μM test compound; read-out: Inhibition at 1 μM (NDP-α-MSH) In Normal System, MC5-R. In a few lines: as §1
The target of experiment [4] is T2, MC4-R. The experiment in a line: cAMP agonist stimulation, high receptor density system (10 ng/mL doxycycline). As to conditions: for Efficacy/Intrinsic Activity: 10 ng/mL doxycycline, high receptor density hMC4-R system, NDP-α-MSH maximal cAMP = 1.0.
Experiment [5] in a line: Penile erection induction in male rats. Format: in vivo. As to conditions: rat. Put shortly: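 Male Sprague-Dawley rats (200-250 g), groups of 4-8, dosed IV or ICV at various doses and observed individually for penile erections. Only statistically relevant increases over vehicle-control mean PEs count as induction; IV responses below 1.0 PEs/rat treated as equivocal, some retested ICV.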

A short description of experiment [6]: IV and IP food intake and body weight change, rats. Format: in vivo. As to conditions: rat, IV. Put shortly: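 Male Sprague-Dawley rats dosed IV (0.5-3, up to 10 mg/kg) or IP (0.5-10, up to 50 mg/kg); male C57BL/6 mice dosed IP. Change in food intake and body weight over 24 h post-dose versus 1-week vehicle baseline, with 48 and 72 h reversal checks.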

Non-standard residues stand in square brackets, D forms with d. Residues, ends and D or L forms follow the SMILES beside them. *: point of attachment. dPhe(4-Cl) = N[C@H](Cc1ccc(Cl)cc1)C(=O)O; Ahp = NCCCCCCC(=O)O; Bn = c1ccc(C*)cc1

T2 sequence (P32245 whole entry): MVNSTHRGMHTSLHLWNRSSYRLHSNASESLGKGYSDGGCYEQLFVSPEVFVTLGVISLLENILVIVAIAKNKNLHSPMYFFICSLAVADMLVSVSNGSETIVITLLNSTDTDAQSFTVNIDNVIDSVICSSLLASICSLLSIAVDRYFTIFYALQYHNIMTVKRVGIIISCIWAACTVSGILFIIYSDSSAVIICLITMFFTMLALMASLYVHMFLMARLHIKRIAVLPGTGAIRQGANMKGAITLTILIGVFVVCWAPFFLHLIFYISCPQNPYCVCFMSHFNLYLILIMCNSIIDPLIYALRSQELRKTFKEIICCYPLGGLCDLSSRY
T1 sequence (Q01727 whole entry): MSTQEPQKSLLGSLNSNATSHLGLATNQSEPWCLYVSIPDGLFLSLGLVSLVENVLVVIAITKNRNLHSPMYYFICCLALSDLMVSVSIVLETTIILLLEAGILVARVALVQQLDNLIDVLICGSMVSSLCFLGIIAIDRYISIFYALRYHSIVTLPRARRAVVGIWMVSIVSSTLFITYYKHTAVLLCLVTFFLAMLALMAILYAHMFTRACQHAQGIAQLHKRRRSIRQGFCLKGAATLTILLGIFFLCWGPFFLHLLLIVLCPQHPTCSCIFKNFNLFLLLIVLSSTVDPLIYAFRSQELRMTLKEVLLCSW
Chain of MC5-R (P33032 whole entry): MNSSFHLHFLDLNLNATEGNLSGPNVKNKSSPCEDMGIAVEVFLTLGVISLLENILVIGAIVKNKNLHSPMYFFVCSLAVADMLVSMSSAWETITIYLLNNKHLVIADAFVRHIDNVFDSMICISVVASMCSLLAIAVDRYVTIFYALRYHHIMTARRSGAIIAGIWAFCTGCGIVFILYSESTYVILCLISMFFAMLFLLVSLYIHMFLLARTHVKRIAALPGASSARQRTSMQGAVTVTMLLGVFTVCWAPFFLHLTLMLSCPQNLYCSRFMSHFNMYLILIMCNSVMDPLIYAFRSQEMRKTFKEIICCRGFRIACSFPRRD

For `N=C(N)NCCC[C@H](NC(=O)[C@@H](Cc1ccc(Cl)cc1)NC(=O)[C@H](COCc1ccccc1)NC(=O)CCCCCCN)C(=O)N[C@@H](Cc1c[nH]c2ccccc12)C(=O)N[C@@H](CC(=O)O)C(N)=O` [Example 13, NH2—(CH2)6—C(═O)-Ser(Bzl)-D-Phe(4-Cl)-Arg-Trp-Asp-NH2] (H-[Ahp]S(Bn)[dPhe(4-Cl)]RWD-NH2), on MC1-R, the inhibition – broadly, the percentage by which the read-out fell short of the control – at 1 µM came out at 35%. In addition, in experiment [1], the “decrease in body weight” value worked out at 2.1% and the “decrease in food intake” value is reported as 25.7%. Besides, at MC4-R [2], the “Efficacy/Intrinsic Activity” value is listed as “None”. Further, the “intrinsic activity at MC4-R in a normal system” value on MC4-R [3] is given as 0.5. Besides, the inhibition at 1 µM on MC5-R was 48%. In addition, on MC4-R [4], it took 34 nM to reach a half-maximal effect (EC50) and the “Efficacy/Intrinsic Activity” value was 0.72. Further, in experiment [5] (IV), the “Penile Erection IV” value is on record as “No” and the penile erection response entry was “no penile erections”. In addition, in experiment [6] (dose not stated), the “24 hour decrease in food intake” value was 6%. Further, in experiment [6] (dose not stated, 24 hours), the “decrease in body weight” value worked out at 1%.

For `N=C(N)NCCC[C@H]1CN(CCc2ccc3ccccc3c2)CCN1C(=O)[C@H](N)Cc1ccc(Cl)cc1Cl` [Example 17, N-{3-[(S)-1-[(R)-2-Amino-3-(2,4-dichloro-phenyl)-propionyl]-4-(2-naphthalen-2-yl-ethyl)-piperazin-2-yl]-propyl}-guanidine], the inhibition at 1 µM amounted to 6% on MC1-R and 75% at MC5-R. Besides, at MC1-R (read-out: Ki (nM) (NDP-α-MSH) In Normal System, MC1-R), the Ki (in general, a measure of affinity in units of concentration, obtained from inhibition or displacement) came to 1200 nM. Moreover, in experiment [1], the “decrease in food intake” value was determined as 32%. In addition, the “Efficacy/Intrinsic Activity” value is recorded as “None” on MC4-R [2] and 0.67 on MC4-R [4]. In addition, on MC4-R [3], the “intrinsic activity at MC4-R in a normal system” value is on record as 0.4. For the same molecule, the “functional status at MC4-R in cAMP assay” value at MC4-R [3] (normal system, 1 μM concentration where stated) was “partial agonist (intrinsic activity between 0.1 (10%) and 0.7 (70%) is classified as a partial agonist)”. Besides, the midpoint of the response on MC4-R [4], the EC50, lay at 847 nM. Also, the “Penile Erection ICV” value in experiment [5] (ICV) is reported as “No”. The penile erection response entry is on record as “no penile erection response” in experiment [5] (ICV, 0.3 to 3 nmole) and “no penile erection response” in experiment [5] (IV, 0.3 to 30 μg/kg). The “Penile Erection IV” value in experiment [5] (IV) is “No”. Further, the “maximal decrease in food intake” value in experiment [6] (10 mg/kg, 24 hours) stood at 91%.
